Assay results: patent publication US20240368214A1, “POSITIVE NMDA-MODULATING COMPOUNDS AND METHODS OF USE THEREOF” (SAGE THERAPEUTICS, INC., priority 2021, published 2024)
Where two headings read alike, the source gives them in different places.

Molecular target: T1, recombinant human GluN1/GluN2A receptor (Homo sapiens, UniProt Q05586+Q12879)
T1 construct: expressed in transfected cells; host or cells: HEK293, tetracycline-inducible expression
Experiment: Whole-cell patch clamp of mammalian cells (Syncropatch 384i), NMDA modulation
Assay type: cell-based
Details: HEK293 cells, human GluN1/GluN2A, glutamate 1 μM / glycine 100 μM, -80 mV, peak amplitude increase; for EC50: read-out: EC50
Procedure, shortened: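 HEK293 cells with tetracycline-induced (50 ng/ml, 18–24 h) human GluN1/GluN2A, automated whole-cell recording at −80 mV, pH 7.4 external. After 120 s compound pre-incubation, compound applied with glutamate 1 μM/glycine 100 μM; fold peak increase (Icomp/Icontrol)−1 over 8 concentrations fitted four-parameter logistic.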

T1 sequence (Q12879 23-1464, other chains not shown): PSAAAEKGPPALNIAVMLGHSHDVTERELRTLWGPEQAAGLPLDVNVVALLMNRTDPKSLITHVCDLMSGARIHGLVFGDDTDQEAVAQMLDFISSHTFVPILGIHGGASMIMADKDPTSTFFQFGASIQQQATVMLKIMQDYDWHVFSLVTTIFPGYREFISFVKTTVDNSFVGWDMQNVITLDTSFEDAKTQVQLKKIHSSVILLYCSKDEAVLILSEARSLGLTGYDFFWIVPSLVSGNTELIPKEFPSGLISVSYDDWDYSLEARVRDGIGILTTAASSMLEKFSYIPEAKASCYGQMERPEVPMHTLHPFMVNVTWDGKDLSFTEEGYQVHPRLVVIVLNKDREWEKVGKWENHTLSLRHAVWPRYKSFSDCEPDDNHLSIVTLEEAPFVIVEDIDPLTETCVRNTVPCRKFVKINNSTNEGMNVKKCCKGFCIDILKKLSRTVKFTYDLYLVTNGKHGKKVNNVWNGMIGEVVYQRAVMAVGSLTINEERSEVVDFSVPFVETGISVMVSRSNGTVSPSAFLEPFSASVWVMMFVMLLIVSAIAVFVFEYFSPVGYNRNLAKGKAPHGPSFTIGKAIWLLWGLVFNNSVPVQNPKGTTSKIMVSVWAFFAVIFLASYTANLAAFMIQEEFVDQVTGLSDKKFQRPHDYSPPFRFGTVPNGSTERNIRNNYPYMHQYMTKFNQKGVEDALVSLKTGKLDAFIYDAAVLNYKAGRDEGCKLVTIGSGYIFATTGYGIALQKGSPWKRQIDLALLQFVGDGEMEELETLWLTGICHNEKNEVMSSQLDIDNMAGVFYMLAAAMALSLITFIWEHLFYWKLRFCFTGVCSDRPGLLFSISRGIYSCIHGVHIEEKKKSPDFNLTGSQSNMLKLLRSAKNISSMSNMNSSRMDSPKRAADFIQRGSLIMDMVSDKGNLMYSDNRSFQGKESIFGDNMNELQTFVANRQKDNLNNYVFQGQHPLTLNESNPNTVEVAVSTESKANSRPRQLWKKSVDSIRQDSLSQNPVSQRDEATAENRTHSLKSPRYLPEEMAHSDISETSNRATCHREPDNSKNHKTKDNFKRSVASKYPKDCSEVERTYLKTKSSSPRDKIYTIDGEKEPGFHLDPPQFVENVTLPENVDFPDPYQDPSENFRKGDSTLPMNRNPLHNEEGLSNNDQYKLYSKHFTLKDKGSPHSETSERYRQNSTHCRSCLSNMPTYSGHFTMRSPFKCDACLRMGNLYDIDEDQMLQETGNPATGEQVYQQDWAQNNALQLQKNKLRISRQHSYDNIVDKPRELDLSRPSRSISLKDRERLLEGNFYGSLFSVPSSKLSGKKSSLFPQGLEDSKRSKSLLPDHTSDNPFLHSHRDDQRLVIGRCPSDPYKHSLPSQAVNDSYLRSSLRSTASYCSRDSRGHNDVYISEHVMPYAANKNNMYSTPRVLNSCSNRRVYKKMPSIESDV

Row | Structure (SMILES) | EC50 (Table C-2) | Emax (Table C-2) | EC50 (Table E-2) | Emax (Table D-2) | EC50 (Table D-2)
1 | C[C@H](CC[C@@H](O)C1(C#N)CC1)[C@H]1CC[C@H]2[C@@H]3CC=C4C[C@@](C)(O)CC[C@]4(C)[C@H]3CC[C@]12C [Compound C-23, 1-((1R,4R)-1-hydroxy-4-((3S,8S,9S,10R,13R,14S,17R)-3-hydroxy-3,10,13-trimethyl-2,3,4,7,8,9,10,11,12,13,14,15,16,17-tetradecahydro-1H-cyclopenta[a]phenanthren-17-yl)pentyl)cyclopropane-1-carbonitrile] | 1 to 100 nM | – | – | – | –
2 | C[C@H](CC[C@@H](O)C1(C#N)CCC1)[C@H]1CC[C@H]2[C@@H]3CC=C4C[C@@](C)(O)CC[C@]4(C)[C@H]3CC[C@]12C [Compound C-24, 1-((1R,4R)-1-hydroxy-4-((3S,8S,9S,10R,13R,14S,17R)-3-hydroxy-3,10,13-trimethyl-2,3,4,7,8,9,10,11,12,13,14,15,16,17-tetradecahydro-1H-cyclopenta[a]phenanthren-17-yl)pentyl)cyclobutane-1-carbonitrile] | 1 to 100 nM | – | – | – | –
3 | C[C@H](CC[C@H](O)C1(C#N)CCC1)[C@H]1CC[C@H]2[C@@H]3CC=C4C[C@@](C)(O)CC[C@]4(C)[C@H]3CC[C@]12C [Compound C-25, 1-((1S,4R)-1-hydroxy-4-((3S,8S,9S,10R,13R,14S,17R)-3-hydroxy-3,10,13-trimethyl-2,3,4,7,8,9,10,11,12,13,14,15,16,17-tetradecahydro-1H-cyclopenta[a]phenanthren-17-yl)pentyl)cyclobutane-1-carbonitrile] | 1 to 100 nM | < 100% | – | – | –
4 | CC[C@]1(O)CC[C@]2(C)C3=CC[C@]4(C)[C@@H]([C@H](C)CC[C@H](O)C5(C#N)CC5)CC[C@H]4[C@@H]3CC[C@H]2C1 [Compound C-26, 1-((1S,4R)-4-((3S,5S,8S,10S,13R,14S,17R)-3-ethyl-3-hydroxy-10,13-dimethyl-2,3,4,5,6,7,8,10,12,13,14,15,16,17-tetradecahydro-1H-cyclopenta[a]phenanthren-17-yl)-1-hydroxypentyl)cyclopropane-1-carbonitrile] | 1 to 100 nM | – | 1 to 100 nM | – | –
5 | CC[C@]1(O)CC[C@]2(C)C3=CC[C@]4(C)[C@@H]([C@H](C)CC[C@@H](O)C5(C#N)CC5)CC[C@H]4[C@@H]3CC[C@H]2C1 [Compound C-27, 1-((1R,4R)-4-((3S,5S,8S,10S,13R,14S,17R)-3-ethyl-3-hydroxy-10,13-dimethyl-2,3,4,5,6,7,8,10,12,13,14,15,16,17-tetradecahydro-1H-cyclopenta[a]phenanthren-17-yl)-1-hydroxypentyl)cyclopropane-1-carbonitrile] | 1 to 100 nM | – | 1 to 100 nM | – | –
6 | CC[C@]1(O)CC[C@]2(C)C3=CC[C@]4(C)[C@@H]([C@H](C)CC[C@@H](O)C(C)(C)C#N)CC[C@H]4[C@@H]3CC[C@H]2C1 [Compound C-28, (3R,6R)-6-((3S,5S,8S,10S,13R,14S,17R)-3-ethyl-3-hydroxy-10,13-dimethyl-2,3,4,5,6,7,8,10,12,13,14,15,16,17-tetradecahydro-1H-cyclopenta[a]phenanthren-17-yl)-3-hydroxy-2,2-dimethylheptanenitrile] | 1 to 100 nM | – | 1 to 100 nM | – | –
7 | CC[C@]1(O)CC[C@]2(C)C3=CC[C@]4(C)[C@@H]([C@H](C)CC[C@H](O)C(C)(C)C#N)CC[C@H]4[C@@H]3CC[C@H]2C1 [Compound C-29, (3S,6R)-6-((3S,5S,8S,10S,13R,14S,17R)-3-ethyl-3-hydroxy-10,13-dimethyl-2,3,4,5,6,7,8,10,12,13,14,15,16,17-tetradecahydro-1H-cyclopenta[a]phenanthren-17-yl)-3-hydroxy-2,2-dimethylheptanenitrile] | 1 to 100 nM | – | 1 to 100 nM | – | –
8 | C[C@H](CC[C@H](O)C1(C#N)CCC1)[C@H]1CC[C@H]2[C@@H]3CC[C@H]4C[C@@](C)(O)CC[C@]4(C)C3=CC[C@]12C [Compound C-30, 1-((1S,4R)-1-hydroxy-4-((3S,5S,8S,10S,13R,14S,17R)-3-hydroxy-3,10,13-trimethyl-2,3,4,5,6,7,8,10,12,13,14,15,16,17-tetradecahydro-1H-cyclopenta[a]phenanthren-17-yl)pentyl)cyclobutane-1-carbonitrile] | 100 to 500 nM | – | 100 to 500 nM | – | –
9 | C[C@H](CC[C@@H](O)C1(C#N)CCC1)[C@H]1CC[C@H]2[C@@H]3CC[C@H]4C[C@@](C)(O)CC[C@]4(C)C3=CC[C@]12C [Compound C-31, 1-((1R,4R)-1-hydroxy-4-((3S,5S,8S,10S,13R,14S,17R)-3-hydroxy-3,10,13-trimethyl-2,3,4,5,6,7,8,10,12,13,14,15,16,17-tetradecahydro-1H-cyclopenta[a]phenanthren-17-yl)pentyl)cyclobutane-1-carbonitrile] | 1 to 100 nM | – | 1 to 100 nM | – | –
10 | C[C@H](CC[C@@H](O)C1(C#N)CC1)[C@H]1CC[C@H]2[C@@H]3CC[C@H]4C[C@@](C)(O)CC[C@]4(C)C3=CC[C@]12C [Compound C-32, 1-((1R,4R)-1-hydroxy-4-((3S,5S,8S,10S,13R,14S,17R)-3-hydroxy-3,10,13-trimethyl-2,3,4,5,6,7,8,10,12,13,14,15,16,17-tetradecahydro-1H-cyclopenta[a]phenanthren-17-yl)pentyl)cyclopropane-1-carbonitrile] | 1 to 100 nM | – | 1 to 100 nM | – | –
11 | C[C@H](CC[C@H](O)C1(C#N)CC1)[C@H]1CC[C@H]2[C@@H]3CC[C@H]4C[C@@](C)(O)CC[C@]4(C)C3=CC[C@]12C [Compound C-33, 1-((1S,4R)-1-hydroxy-4-((3S,5S,8S,10S,13R,14S,17R)-3-hydroxy-3,10,13-trimethyl-2,3,4,5,6,7,8,10,12,13,14,15,16,17-tetradecahydro-1H-cyclopenta[a]phenanthren-17-yl)pentyl)cyclopropane-1-carbonitrile] | 100 to 500 nM | – | 100 to 500 nM | – | –
12 | C[C@H](CC[C@@H](O)C(C)(C)C#N)[C@H]1CC[C@H]2[C@@H]3CC[C@H]4C[C@@](C)(O)CC[C@]4(C)C3=CC[C@]12C [Compound C-34, (3R,6R)-3-hydroxy-6-((3S,5S,8S,10S,13R,14S,17R)-3-hydroxy-3,10,13-trimethyl-2,3,4,5,6,7,8,10,12,13,14,15,16,17-tetradecahydro-1H-cyclopenta[a]phenanthren-17-yl)-2,2-dimethylheptanenitrile] | 1 to 100 nM | – | 1 to 100 nM | – | –
13 | C[C@H](CC[C@H](O)C(C)(C)C#N)[C@H]1CC[C@H]2[C@@H]3CC[C@H]4C[C@@](C)(O)CC[C@]4(C)C3=CC[C@]12C [Compound C-35, (3S,6R)-3-hydroxy-6-((3S,5S,8S,10S,13R,14S,17R)-3-hydroxy-3,10,13-trimethyl-2,3,4,5,6,7,8,10,12,13,14,15,16,17-tetradecahydro-1H-cyclopenta[a]phenanthren-17-yl)-2,2-dimethylheptanenitrile] | 1 to 100 nM | – | 1 to 100 nM | – | –
14 | CC[C@@]1(O)CC[C@@H]2CC[C@@H]3[C@H](CC[C@]4(C)[C@@H]([C@H](C)CC[C@@](C)(O)C(F)(F)F)CC[C@@H]34)[C@@]2(C)CC1 [Compound D-1, (1R,3aS,3bR,5aS,8R,10aS,10bS,12aR)-8-ethyl-10a,12a-dimethyl-1-((2R,5R)-6,6,6-trifluoro-5-hydroxy-5-methylhexan-2-yl)octadecahydrocyclohepta[a]cyclopenta[f]naphthalen-8-ol] | – | – | – | < 100% | > 1000 nM
15 | CC[C@]1(O)CC[C@@H]2CC[C@@H]3[C@H](CC[C@]4(C)[C@@H]([C@H](C)CC[C@@](C)(O)C(F)(F)F)CC[C@@H]34)[C@@]2(C)CC1 [Compound D-2, (1R,3aS,3bR,5aS,8S,10aS,10bS,12aR)-8-ethyl-10a,12a-dimethyl-1-((2R,5R)-6,6,6-trifluoro-5-hydroxy-5-methylhexan-2-yl)octadecahydrocyclohepta[a]cyclopenta[f]naphthalen-8-ol] | – | – | – | < 100% | > 1000 nM
16 | CC[C@@]1(O)CC[C@@H]2CC[C@@H]3[C@H](CC[C@]4(C)[C@@H]([C@H](C)CC[C@](C)(O)C(F)(F)F)CC[C@@H]34)[C@@]2(C)CC1 [Compound D-3, (1R,3aS,3bR,5aS,8R,10aS,10bS,12aR)-8-ethyl-10a,12a-dimethyl-1-((2R,5S)-6,6,6-trifluoro-5-hydroxy-5-methylhexan-2-yl)octadecahydrocyclohepta[a]cyclopenta[f]naphthalen-8-ol] | – | – | – | 100 to 200% | 100 to 500 nM
17 | CC[C@]1(O)CC[C@@H]2CC[C@@H]3[C@H](CC[C@]4(C)[C@@H]([C@H](C)CC[C@](C)(O)C(F)(F)F)CC[C@@H]34)[C@@]2(C)CC1 [Compound D-4, (1R,3aS,3bR,5aS,8S,10aS,10bS,12aR)-8-ethyl-10a,12a-dimethyl-1-((2R,5S)-6,6,6-trifluoro-5-hydroxy-5-methylhexan-2-yl)octadecahydrocyclohepta[a]cyclopenta[f]naphthalen-8-ol] | – | – | – | – | > 1000 nM
